# Results published in patent publication US20140050778A1, “NUCLEIC ACID BINDING COMPOUNDS, METHODS OF MAKING, AND USE THEREOF” (UNIVERSITY OF ROCHESTER, priority 2010, published 2014).
# How the values were obtained:
# [1] = system: C5-14 C2C12 mouse myoblasts ((CUG)800 RNA-MBNL1 complexes); assay: Firefly luciferase reporter with ~800 CUG repeats in hDMPK 3'UTR; format: cell-based; details: C5-14 myoblasts, 3 days; compound 4 0-100 μM, compound 11 0-200 μM
# Method: The ability of selected compounds to inhibit the formation of CUG^exp RNA-MBNL1 complexes in mouse myoblasts was then evaluated. […] Cells were grown in 100 μl growth media in 96-well plates to 10% confluency. […] Culture media was replaced with fresh media containing 1% WST-1 reagent (Roche). After 15-20 minutes of incubation, the WST-1 containing media was transferred to a clear 96-well plate, and the absorbances at 450 nm and 690 nm measured with a PerkinElmer EnVision Plate Reader. Cells were gently rinsed (1×PBS) before incubation at -20° C. in 100 μl 1X Passive Lysis Buffer (Promega) for 10 minutes. Immediately before luminescence detection, 20 μl of each lysate was mixed with 50 μl of Luciferase Assay Reagent (Promega) in a fresh opaque-white 96-well plate. Luminescence values were normalized for well-to-well variations in viable cell numbers by dividing by the corresponding (A450 nm-[…] nm) values of the WST-1 containing media. […] Thus, CUG^exp binding compounds are capable of releasing the sequestered mRNA transcripts into the cytoplasm for translation.
# [2] = system: yeast tRNA; assay: Fluorescence titration control; format: binding; details: yeast tRNA titrated into a mixture of compounds 4 and 5
# Method: The benzo[g]quinoline moiety is fluorescent, with excitation and emission maxima at 362 nm and 439 nm respectively in methanol. Fluorescence titration binding measurements were performed on a Cary Eclipse fluorescence spectrophotometer using a 10 mm path-length semimicro quartz fluorescence cell with 400 μL sample holding capacity. Absorbance measurements were carried out on a UV-Visible spectrophotometer (Shimadzu, UV-1601PC) using a 1 mL (1 cm path-length) quartz cell. Spectroscopic grade anhydrous methanol used in the measurement of relative quantum yield of the 2-ethyl benzo[g]quinoline carboxylic acid was purchased from Alfa Aesar and was used without further purification. For these measurements, known procedures were used (Lee and Grissom, “Design, Synthesis, and Characterization of Fluorescent Cobalamin Analogues with High Quantum Efficiencies,” Org. Lett. 11:2499-2502 (2009); Joseph R. Lakowicz, Principles of Fluorescence Spectroscopy, 2nd edition (Kluwer Academic/Plenum Publishers, 1999), which are hereby incorporated by reference in their entirety). Briefly, RNA (10 μM stock) in HBS-N buffer was titrated into a solution of 1 μM compound in HBS-N. After each addition of RNA, ten minutes were allowed for equilibration before recording the change in fluorescence at 468.5 nm. […]
# Selected equilibrium affinities for (CUG)10 were confirmed by fluorescence titration. […]
# [3] = system: HSA^LR transgenic mice; assay: Acute toxicity observed in treated mice; format: in vivo, mouse; details: 40 mg/kg intraperitoneally once per day for 5 days
# Method: Mouse handling and experimental procedures were conducted in accordance with the Association for Assessment and Accreditation of Laboratory Animal Care. HSA^LR transgenic mice in line 20b expressing human skeletal actin RNA with 250 CUG repeats in the 3′ UTR were previously described (Mankodi, “Myotonic Dystrophy in Transgenic Mice Expressing an Expanded CUG Repeat,” Science 289:1769-1772 (2000), which is hereby incorporated by reference in its entirety). Age- and gender-matched HSA^LR mice (12-16 weeks old) were injected intraperitoneally with 40 mg/kg of compounds or saline alone once per day for 5 days. Mice were sacrificed one day after the last injection, and vastus muscle was obtained for splicing analysis. RNA extraction, cDNA preparation, and RT-PCR were performed as described previously. The PCR products were electrophoresed on agarose gels for separation, and scanned with a laser fluorimager (Typhoon, GE Healthcare). Quantitative analysis of amplified products was performed by ImageQuant software (Molecular Dynamics). Differences between two groups were evaluated by unpaired Student's t-test.
# [4] = target: (CUG)10 RNA; assay: Fluorescence titration (benzo[g]quinoline quenching); format: binding; details: (CUG)10, 1 μM compound in HBS-N, read-out: Apparent KD
# Method: The benzo[g]quinoline moiety is fluorescent, with excitation and emission maxima at 362 nm and 439 nm respectively in methanol. Fluorescence titration binding measurements were performed on a Cary Eclipse fluorescence spectrophotometer using a 10 mm path-length semimicro quartz fluorescence cell with 400 μL sample holding capacity. Absorbance measurements were carried out on a UV-Visible spectrophotometer (Shimadzu, UV-1601PC) using a 1 mL (1 cm path-length) quartz cell. Spectroscopic grade anhydrous methanol used in the measurement of relative quantum yield of the 2-ethyl benzo[g]quinoline carboxylic acid was purchased from Alfa Aesar and was used without further purification. For these measurements, known procedures were used (Lee and Grissom, “Design, Synthesis, and Characterization of Fluorescent Cobalamin Analogues with High Quantum Efficiencies,” Org. Lett. 11:2499-2502 (2009); Joseph R. Lakowicz, Principles of Fluorescence Spectroscopy, 2nd edition (Kluwer Academic/Plenum Publishers, 1999), which are hereby incorporated by reference in their entirety). Briefly, RNA (10 μM stock) in HBS-N buffer was titrated into a solution of 1 μM compound in HBS-N. After each addition of RNA, ten minutes were allowed for equilibration before recording the change in fluorescence at 468.5 nm. Fluorescence units (“FU”) were then corrected for dilution and the FU after each addition was subtracted from the FU at zero RNA concentration to give AFU. Following saturation, AFU was plotted against RNA concentration using Origin 7 (OriginLab, Inc.), and fitted to a 1:1 Langmuir binding model to obtain apparent dissociation constants (Kn). […]
# Selected equilibrium affinities for (CUG)10 were confirmed by fluorescence titration. The quantum yield of the ethylbenzo[g]quinoline carboxylic acid (compound 2), relative to quinine sulfate, was determined to be 0.64 (FIGS. 5A-F). […] Apparent KD values measured in this manner are consistent with those obtained by SPR (Table 6); that they are not identical to SPR-measured values likely results from the differing formats of the two methods. […]
# [5] = system: mouse myoblasts; assay: MTT toxicity assay; format: cell-based; details: individually
# Method: For toxicity studies, mouse myoblasts or human fibroblasts were plated in a 96-well tissue culture plate in DMEM (10% fetal bovine serum, 100 units/ml penicillin, […]) and allowed to grow to approximately 80% confluence at 37° C. under CO2. Varying compound concentrations (up to 1 mM) were incubated with cells (48 hours, 37° C.). Media was then removed, and 3-(4,5-dimethylthiazol-2-yl)-2,5-diphenyltetrazolium bromide (“MTT”) in media was added to each well and incubated at 37° C. for 4 h. After removal of the MTT media, isopropanol (100 pp was added, and absorbance was measured at 600 nm on a Modulus microplate reader (Turner Biosystems).
Structure (SMILES),luciferase activity [1],binding of yeast tRNA [2],acute toxicity effects in mice [3],Kd [4] [nM],toxicity (MTT) [5]
CCc1nc2cc3ccccc3cc2cc1C(=O)N1CCC[C@H]1C(=O)N[C@@H](C/C=C\C[C@H](NC(=O)[C@@H]1CCCN1C(=O)c1cc2cc3ccccc3cc2nc1CC)C(=O)N[C@@H](CCCCN)C(=O)NCCCN)C(=O)N[C@@H](CCCCN)C(=O)NCCCN [Compound 4],concentration-dependent increases in luciferase activity,No binding,significant acute toxicity effects,66.3 ± 2.1,increasing toxicity was observed in mouse myoblasts above 100 μM
CCc1nc2cc3ccccc3cc2cc1C(=O)N1CCC[C@H]1C(=O)N[C@@H](C/C=C/C[C@H](NC(=O)[C@@H]1CCCN1C(=O)c1cc2cc3ccccc3cc2nc1CC)C(=O)N[C@@H](CCCCN)C(=O)NCCCN)C(=O)N[C@@H](CCCCN)C(=O)NCCCN [Compound 5],,No binding,,70.4 ± 1.1,increasing toxicity was observed in mouse myoblasts above 100 μM
